Assays:
BZD (central) = test: CEREP BioPrint binding; conditions: 1.0E-05M; agonist radioligand
Procedure: (§1) Clemizole (149934-L6) was tested in the CEREP BioPrint Profile, which is apanel of 139 different in vitro receptor binding and enzyme assays. For the initial BioPrint screen, afree compound concentration of 10 μM (LOE-5 M) was used. Compound binding was calculated as a % inhibition of the binding of aradioactively labeled ligand specific for each target. Compound enzyme inhibition effect was calculated as a % inhibition of control enzyme activity. In each experiment, the respective reference compound was tested concurrently with Clemizole (149934-L6), and the data were compared with historical values determined at CEREP. The experiment was accepted in accordance with CEREP's validation Standard Operating Procedure. Results showing an inhibition (or stimulation for assays run in basal conditions) higher than 50% are considered to represent significant effects of the test compounds.

CB2(h) = biological target: T1, CB2(h) (Homo sapiens, UniProt P34972); test: CEREP BioPrint binding; conditions: 1.0E-05M; agonist radioligand
T1 construct: CEREP (contract assay panel)
T1 sequence (P34972 whole entry): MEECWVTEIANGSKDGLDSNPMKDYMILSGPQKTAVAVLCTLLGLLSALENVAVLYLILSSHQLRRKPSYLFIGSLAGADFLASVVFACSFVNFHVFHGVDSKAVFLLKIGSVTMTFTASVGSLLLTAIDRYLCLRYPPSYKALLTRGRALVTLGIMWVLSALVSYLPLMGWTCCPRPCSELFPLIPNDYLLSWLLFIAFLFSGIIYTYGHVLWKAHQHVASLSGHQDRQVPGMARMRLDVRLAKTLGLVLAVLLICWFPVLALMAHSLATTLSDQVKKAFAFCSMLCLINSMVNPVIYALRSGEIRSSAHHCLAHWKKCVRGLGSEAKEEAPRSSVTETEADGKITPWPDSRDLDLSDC
Procedure: as §1

5-HT4e(h) = biological target: T2, 5-HT4e(h) (Homo sapiens, UniProt Q13639); test: CEREP BioPrint binding; conditions: 1.0E-05M; agonist radioligand
T2 construct: CEREP (contract assay panel)
T2 sequence (Q13639 1-378 isoform Q13639-5): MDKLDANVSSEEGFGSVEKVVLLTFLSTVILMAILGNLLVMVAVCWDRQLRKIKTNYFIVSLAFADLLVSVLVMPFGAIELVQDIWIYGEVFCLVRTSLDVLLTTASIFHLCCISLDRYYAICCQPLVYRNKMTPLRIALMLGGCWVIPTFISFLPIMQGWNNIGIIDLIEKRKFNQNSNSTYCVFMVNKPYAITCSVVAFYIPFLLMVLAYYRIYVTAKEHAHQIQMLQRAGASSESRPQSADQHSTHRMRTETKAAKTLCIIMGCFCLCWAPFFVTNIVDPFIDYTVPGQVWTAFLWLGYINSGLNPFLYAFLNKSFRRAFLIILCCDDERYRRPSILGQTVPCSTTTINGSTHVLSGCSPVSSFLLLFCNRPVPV
Procedure: as §1

GABAB(1b)(h) = biological target: T3, GABAB(1b)(h) (Homo sapiens, UniProt Q9UBS5); test: CEREP BioPrint binding; conditions: 1.0E-05M; agonist radioligand
T3 construct: CEREP (contract assay panel)
T3 sequence (Q9UBS5 1-844 isoform Q9UBS5-2): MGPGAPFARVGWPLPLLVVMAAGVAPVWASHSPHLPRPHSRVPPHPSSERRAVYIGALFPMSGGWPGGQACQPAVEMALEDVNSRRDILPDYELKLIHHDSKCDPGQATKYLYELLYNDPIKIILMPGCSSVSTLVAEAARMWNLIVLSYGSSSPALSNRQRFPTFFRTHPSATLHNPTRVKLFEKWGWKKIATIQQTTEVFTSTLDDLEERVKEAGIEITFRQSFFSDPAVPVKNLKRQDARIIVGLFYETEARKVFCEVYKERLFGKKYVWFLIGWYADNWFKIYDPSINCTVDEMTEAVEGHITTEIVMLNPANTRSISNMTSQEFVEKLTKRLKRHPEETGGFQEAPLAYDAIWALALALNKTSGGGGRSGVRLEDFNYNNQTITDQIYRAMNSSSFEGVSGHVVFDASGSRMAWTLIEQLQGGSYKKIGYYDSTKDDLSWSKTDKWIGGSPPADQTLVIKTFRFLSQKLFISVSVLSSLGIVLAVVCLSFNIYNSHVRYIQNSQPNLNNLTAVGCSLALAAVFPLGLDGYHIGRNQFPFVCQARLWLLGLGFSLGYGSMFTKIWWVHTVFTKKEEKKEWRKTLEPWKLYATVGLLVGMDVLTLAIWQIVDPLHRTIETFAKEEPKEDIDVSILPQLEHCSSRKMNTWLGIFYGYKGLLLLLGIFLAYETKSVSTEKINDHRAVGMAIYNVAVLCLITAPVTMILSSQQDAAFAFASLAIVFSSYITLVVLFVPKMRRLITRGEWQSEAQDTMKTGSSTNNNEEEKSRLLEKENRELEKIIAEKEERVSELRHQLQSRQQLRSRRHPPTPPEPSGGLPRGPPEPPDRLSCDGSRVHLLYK
Procedure: as §1

5-HT1A(h) = biological target: T4, 5-HT1A(h) (Homo sapiens, UniProt P08908); test: CEREP BioPrint binding; conditions: 1.0E-05M; agonist radioligand
T4 construct: CEREP (contract assay panel)
T4 sequence (P08908 1-422): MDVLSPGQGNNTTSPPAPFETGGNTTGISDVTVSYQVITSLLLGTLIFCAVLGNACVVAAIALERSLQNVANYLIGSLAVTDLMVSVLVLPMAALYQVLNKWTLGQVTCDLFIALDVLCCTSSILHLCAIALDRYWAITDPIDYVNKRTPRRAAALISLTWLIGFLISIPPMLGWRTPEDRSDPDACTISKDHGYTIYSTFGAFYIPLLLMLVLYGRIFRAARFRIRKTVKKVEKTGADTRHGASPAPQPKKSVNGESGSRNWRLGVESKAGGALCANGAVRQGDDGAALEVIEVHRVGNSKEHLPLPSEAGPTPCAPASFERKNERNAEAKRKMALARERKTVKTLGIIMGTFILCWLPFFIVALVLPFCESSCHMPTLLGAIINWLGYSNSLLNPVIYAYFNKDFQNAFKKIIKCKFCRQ
Procedure: as §1

GABA transporter = test: CEREP BioPrint binding; conditions: 1.0E-05M
Procedure: as §1

GABAA1(h) = biological target: T5, GABAA1(h) (Homo sapiens, UniProt P14867+P47870); test: CEREP BioPrint binding; conditions: 1.0E-05M; agonist radioligand
T5 construct: CEREP (contract assay panel)
T5 sequence (P14867 28-456): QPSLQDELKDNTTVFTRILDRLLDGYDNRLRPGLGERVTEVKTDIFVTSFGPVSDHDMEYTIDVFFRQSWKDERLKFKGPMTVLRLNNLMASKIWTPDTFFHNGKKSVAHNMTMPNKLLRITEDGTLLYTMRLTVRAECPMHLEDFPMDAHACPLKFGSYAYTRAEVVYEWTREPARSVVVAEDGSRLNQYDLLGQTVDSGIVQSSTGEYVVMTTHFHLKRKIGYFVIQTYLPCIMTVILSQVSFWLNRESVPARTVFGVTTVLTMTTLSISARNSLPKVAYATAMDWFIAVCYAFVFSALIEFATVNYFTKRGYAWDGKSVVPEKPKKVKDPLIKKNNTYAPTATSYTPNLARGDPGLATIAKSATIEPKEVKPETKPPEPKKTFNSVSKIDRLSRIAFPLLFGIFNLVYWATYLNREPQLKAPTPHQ
T5 sequence (P47870 25-512 limits assumed): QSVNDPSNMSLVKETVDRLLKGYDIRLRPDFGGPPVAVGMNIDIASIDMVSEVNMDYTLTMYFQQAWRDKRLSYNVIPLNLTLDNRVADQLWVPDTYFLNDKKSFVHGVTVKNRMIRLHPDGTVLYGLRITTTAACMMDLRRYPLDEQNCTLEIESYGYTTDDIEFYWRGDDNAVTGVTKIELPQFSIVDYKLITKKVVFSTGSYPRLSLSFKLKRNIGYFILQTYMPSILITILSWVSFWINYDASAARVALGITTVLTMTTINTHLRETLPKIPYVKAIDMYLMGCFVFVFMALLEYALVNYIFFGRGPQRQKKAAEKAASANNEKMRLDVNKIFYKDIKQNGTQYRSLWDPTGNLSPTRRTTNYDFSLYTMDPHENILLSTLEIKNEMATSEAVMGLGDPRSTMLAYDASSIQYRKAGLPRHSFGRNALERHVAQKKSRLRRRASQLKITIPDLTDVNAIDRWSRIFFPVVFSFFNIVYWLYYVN
T5 sequence (P18507 40-467 partner limits assumed): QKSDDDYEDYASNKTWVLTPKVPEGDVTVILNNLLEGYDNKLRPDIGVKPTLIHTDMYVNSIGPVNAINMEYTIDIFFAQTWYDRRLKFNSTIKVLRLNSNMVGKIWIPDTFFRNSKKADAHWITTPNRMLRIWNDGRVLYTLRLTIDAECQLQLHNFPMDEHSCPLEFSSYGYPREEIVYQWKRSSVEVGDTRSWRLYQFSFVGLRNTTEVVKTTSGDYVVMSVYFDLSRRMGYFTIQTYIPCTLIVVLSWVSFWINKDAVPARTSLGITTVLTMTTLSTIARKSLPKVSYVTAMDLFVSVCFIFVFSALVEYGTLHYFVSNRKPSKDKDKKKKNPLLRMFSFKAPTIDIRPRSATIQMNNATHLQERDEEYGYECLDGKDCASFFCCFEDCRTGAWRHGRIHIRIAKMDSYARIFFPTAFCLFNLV
Procedure: as §1

CB1(h) = biological target: T6, CB1(h) (Homo sapiens, UniProt P21554); test: CEREP BioPrint binding; conditions: 1.0E-05M; agonist radioligand
T6 construct: CEREP (contract assay panel)
T6 sequence (P21554 whole entry): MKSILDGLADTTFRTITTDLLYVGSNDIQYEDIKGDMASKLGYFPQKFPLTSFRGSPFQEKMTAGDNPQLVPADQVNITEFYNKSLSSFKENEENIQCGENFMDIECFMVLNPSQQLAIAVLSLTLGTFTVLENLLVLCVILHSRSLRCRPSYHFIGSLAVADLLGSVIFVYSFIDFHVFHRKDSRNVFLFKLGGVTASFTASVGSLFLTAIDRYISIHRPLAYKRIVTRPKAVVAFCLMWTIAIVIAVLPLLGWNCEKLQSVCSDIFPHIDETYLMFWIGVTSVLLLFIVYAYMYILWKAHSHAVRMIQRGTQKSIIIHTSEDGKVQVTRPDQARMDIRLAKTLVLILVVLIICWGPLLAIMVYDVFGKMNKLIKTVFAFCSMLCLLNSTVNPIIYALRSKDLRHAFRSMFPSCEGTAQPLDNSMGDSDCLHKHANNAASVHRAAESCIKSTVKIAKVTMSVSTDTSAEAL
Procedure: as §1

GABA-gated Cl channel = test: CEREP BioPrint binding; conditions: 1.0E-05M
Procedure: as §1

5-HT1B(h) = biological target: T7, 5-HT1B(h) (Homo sapiens, UniProt P28222); test: CEREP BioPrint binding; conditions: 1.0E-05M; agonist radioligand
T7 construct: CEREP (contract assay panel)
T7 sequence (P28222 whole entry): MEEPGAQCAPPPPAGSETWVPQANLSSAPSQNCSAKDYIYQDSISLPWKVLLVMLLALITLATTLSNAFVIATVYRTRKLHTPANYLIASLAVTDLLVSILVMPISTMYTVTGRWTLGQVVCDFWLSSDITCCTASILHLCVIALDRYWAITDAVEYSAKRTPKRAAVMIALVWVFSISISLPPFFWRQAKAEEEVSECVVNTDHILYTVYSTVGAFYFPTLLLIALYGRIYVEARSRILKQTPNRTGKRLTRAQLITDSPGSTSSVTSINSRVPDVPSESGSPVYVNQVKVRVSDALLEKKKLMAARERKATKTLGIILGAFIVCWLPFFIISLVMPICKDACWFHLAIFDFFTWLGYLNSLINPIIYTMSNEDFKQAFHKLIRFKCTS
Procedure: as §1

5-HT2B(h) = biological target: T8, 5-HT2B(h) (Homo sapiens, UniProt P41595); test: CEREP BioPrint binding; conditions: 1.0E-05M; agonist radioligand
T8 construct: CEREP (contract assay panel)
T8 sequence (P41595 whole entry): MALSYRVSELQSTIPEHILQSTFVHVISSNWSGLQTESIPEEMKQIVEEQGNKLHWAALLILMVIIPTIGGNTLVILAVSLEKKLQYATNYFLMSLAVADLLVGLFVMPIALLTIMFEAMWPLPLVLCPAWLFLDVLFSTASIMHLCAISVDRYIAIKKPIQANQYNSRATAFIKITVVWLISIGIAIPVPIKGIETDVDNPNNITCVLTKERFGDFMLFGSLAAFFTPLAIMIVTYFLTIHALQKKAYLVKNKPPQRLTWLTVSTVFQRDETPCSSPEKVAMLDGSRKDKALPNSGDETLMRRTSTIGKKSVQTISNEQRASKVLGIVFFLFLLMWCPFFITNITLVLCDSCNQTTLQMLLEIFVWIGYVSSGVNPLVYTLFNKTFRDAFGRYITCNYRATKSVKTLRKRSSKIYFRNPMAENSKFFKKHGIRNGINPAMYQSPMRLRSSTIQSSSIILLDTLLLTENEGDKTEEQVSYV
Procedure: as §1

5-HT3(h) = biological target: T9, 5-HT3(h) (Homo sapiens, UniProt P46098); test: CEREP BioPrint binding; conditions: 1.0E-05M; agonist radioligand
T9 construct: CEREP (contract assay panel)
T9 sequence (P46098 24-478): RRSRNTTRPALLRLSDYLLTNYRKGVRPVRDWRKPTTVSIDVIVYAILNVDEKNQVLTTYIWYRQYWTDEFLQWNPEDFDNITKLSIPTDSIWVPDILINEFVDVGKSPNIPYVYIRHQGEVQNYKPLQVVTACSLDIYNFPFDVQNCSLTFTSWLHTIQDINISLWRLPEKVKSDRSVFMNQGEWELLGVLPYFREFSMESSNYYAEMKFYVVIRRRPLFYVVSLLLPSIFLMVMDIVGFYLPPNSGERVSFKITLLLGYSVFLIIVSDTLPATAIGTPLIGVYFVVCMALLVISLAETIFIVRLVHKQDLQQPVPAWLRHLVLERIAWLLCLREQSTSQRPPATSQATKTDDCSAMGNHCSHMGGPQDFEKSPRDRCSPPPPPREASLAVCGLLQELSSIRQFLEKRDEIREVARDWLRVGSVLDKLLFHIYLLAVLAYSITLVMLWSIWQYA
Procedure: as §1

SK-Ca channel = test: CEREP BioPrint binding; conditions: 1.0E-05M
Procedure: as §1

5-HT1D(h) = biological target: T10, 5-HT1D(h) (Homo sapiens, UniProt P28221); test: CEREP BioPrint binding; conditions: 1.0E-05M; agonist radioligand
T10 construct: CEREP (contract assay panel)
T10 sequence (P28221 whole entry): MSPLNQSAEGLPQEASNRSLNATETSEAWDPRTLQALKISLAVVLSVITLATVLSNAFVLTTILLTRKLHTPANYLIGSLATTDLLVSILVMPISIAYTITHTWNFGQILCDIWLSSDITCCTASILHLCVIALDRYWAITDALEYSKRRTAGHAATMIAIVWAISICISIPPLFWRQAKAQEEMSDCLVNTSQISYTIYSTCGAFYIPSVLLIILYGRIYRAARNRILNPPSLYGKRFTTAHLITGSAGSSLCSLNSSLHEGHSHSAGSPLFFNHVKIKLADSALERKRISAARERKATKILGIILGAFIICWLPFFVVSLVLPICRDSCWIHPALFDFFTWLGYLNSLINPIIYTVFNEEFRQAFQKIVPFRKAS
Procedure: as §1

5-HT2A(h) = biological target: T11, 5-HT2A(h) (Homo sapiens, UniProt P28223); test: CEREP BioPrint binding; conditions: 1.0E-05M; agonist radioligand
T11 construct: CEREP (contract assay panel)
T11 sequence (P28223 whole entry): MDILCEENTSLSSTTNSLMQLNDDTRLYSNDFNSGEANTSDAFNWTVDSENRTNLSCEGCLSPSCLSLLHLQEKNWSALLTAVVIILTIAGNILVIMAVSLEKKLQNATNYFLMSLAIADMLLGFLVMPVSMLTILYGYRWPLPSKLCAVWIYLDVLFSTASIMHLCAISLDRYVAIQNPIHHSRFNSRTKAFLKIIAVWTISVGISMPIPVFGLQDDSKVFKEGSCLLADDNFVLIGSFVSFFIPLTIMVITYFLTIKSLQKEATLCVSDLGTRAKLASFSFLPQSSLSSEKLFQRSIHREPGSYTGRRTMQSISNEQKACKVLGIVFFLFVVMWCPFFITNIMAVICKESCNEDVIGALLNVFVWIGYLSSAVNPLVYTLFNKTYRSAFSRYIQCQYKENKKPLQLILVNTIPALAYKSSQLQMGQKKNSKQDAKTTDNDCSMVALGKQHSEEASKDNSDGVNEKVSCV
Procedure: as §1

scn1Lab mutants [1] = format: in vivo, zebrafish
scn1Lab mutants [2] = test: Locomotion tracking assay of seizure behavior (96-well format)
[3] = system: WT zebrafish exposed to 15 mM pentylenetetrazole; test: PTZ-induced seizure behavior in wild-type larvae (locomotion); format: in vivo; conditions: 100 μM; 15 mM PTZ; n=10

In the case of Clc1ccc(Cn2c(CN3CCCC3)nc3ccccc32)cc1 [Clemizole], the “% inhibition of the binding of a radioactively labeled ligand, BZD (central)” value (BZD (central)) is reported as −19.6%, the “% inhibition of the binding of a radioactively labeled ligand, CB2(h)” value (CB2(h)) is reported as 28.4% and the “% inhibition of the binding of a radioactively labeled ligand, 5-HT4e(h)” value (5-HT4e(h)) is reported as −1.0%. The “% inhibition of the binding of a radioactively labeled ligand, GABAB(1b)(h)” value (GABAB(1b)(h)) was −5.9%, the “% inhibition of the binding of a radioactively labeled ligand, 5-HT1A(h)” value (5-HT1A(h)) was 19.5% and the “% inhibition of the binding of a radioactively labeled ligand, GABA transporter” value (GABA transporter) was −5.9%. For the same compound, the “% inhibition of the binding of a radioactively labeled ligand, GABAA1(h)” value (GABAA1(h)) was −9.6%, the “% inhibition of the binding of a radioactively labeled ligand, CB1(h)” value (CB1(h)) was 17.9% and the “% inhibition of the binding of a radioactively labeled ligand, GABA-gated Cl channel” value (GABA-gated Cl channel) was 24.9%. For the same compound, the “% inhibition of the binding of a radioactively labeled ligand, 5-HT1B(h)” value (5-HT1B(h)) was 4.4%, the “% inhibition of the binding of a radioactively labeled ligand, 5-HT2B(h)” value (5-HT2B(h)) was 82.5% and the “% inhibition of the binding of a radioactively labeled ligand, 5-HT3(h)” value (5-HT3(h)) was 9.8%. For the same compound, the “% inhibition of the binding of a radioactively labeled ligand, SK-Ca channel” value (SK-Ca channel) was −0.2%, the “% inhibition of the binding of a radioactively labeled ligand, 5-HT1D(h)” value (5-HT1D(h)) was 22.7% and the “% inhibition of the binding of a radioactively labeled ligand, 5-HT2A(h)” value (5-HT2A(h)) was 86%. For the same compound, the “forebrain electrographic seizure activity in the same mutants after the locomotion assay” value (scn1Lab mutants [1]; 100 μM, mutant embedded in agar) was “effective in suppressing spontaneous seizure activity”, the burst duration (scn1Lab mutants [1]; clemizole-treated mutants (100 μM), n=7, un-treated mutants 926±414) was 154 ± 127 ms and the burst frequency (scn1Lab mutants [1]; mutants exposed to clemizole first in locomotion assay (100 μM), n=7, un-treated mutants 1.5±0.3) was 0.2±0.01 bursts/min. The “swim activity / seizure behavior, third evaluation” value (scn1Lab mutants [2]; 100 μM, 10 fish per trial) was “effective in suppressing spontaneous seizure activity”, the “seizure-induced swim activity and mean velocity, re-test on separate clutch” value (scn1Lab mutants [2]; 667, 67 and 6.7 μM) was “effective in reducing seizure-induced swim activity and mean velocity” and the “effect on seizure behavior” value (scn1Lab mutants [2]; concentrations between 6.25 and 50 μM, n=33) was “no significant effect”. The seizure behavior [3] was “effective in reducing seizure behavior”.

— patent US10874643B2 (priority 2015, dated 2020)
